Experimental data published in US20040229837A1, “Treatment of neurodegenerative diseases” (priority 2003, published 2004).

How the values were obtained:
rats = settings: low dosage, Popoli et al. (2002); cited from earlier work
R6/2 mice [1] = assay: Number of activated (GFAP-positive) astrocytes by immunohistochemistry, R6/2 mice; type: in vivo
Description: (§1) Animals were deeply anesthetized with sodium pentobarbital (100 ug/g), and intracardially perfused with 4% paraformaldehyde in 0.1 M phosphate buffer (PB, pH 7.4). Brains were carefully removed, post-fixed with 4% paraformaldehyde/0. 1 M PB for 2-5 h, and then immersed in 30% glycerol in 0.1 M PB. Tissues were cut at 20 um on a freezing microtome (CM3050, Leica Microsystems Nussloch GmbH, Nussloch, Germany).
Single antigen immunohistochemistry was carried out by the avidin-biotin-peroxidase complex method as previously described (Liu et al. (1998) FEBS Lett. 436:92-98). […] The pattern of double immunostaining was analyzed with the aid of a laser confocal microscope (Bio-Rad, MRC-1000, Hercules, Calif., USA).
(§2) Serial-cut coronal tissue sections from the rostral segment of the neostriatum to the level of the anterior commissure (interaural 5.34 mm/bregma 1.54 mm to interaural 3.7 mm/bregma -0.1 mm) were used to define atrophy of the striatum and enlargement of the lateral ventricles. Total areas of the striatum or the lateral ventricles were measured using the software, NIH Image 1.62. Nissl- and GFAP-stained sections were quantified by counting the corresponding types of cells in defined areas of photomicrographs taken using a microscope in phase contrast. […]

R6/2 mice [2] = assay: Locomotor activity of R6/2 mice; type: in vivo; settings: ZM241385 7.5 ug/g given with CGS
R6/2 mice [3] = assay: Number of glia by Nissl staining, R6/2 mice; type: in vivo; settings: chronic CGS treatment
Description: as §1
Serial-cut coronal tissue sections from the rostral segment of the neostriatum to the level of the anterior commissure (interaural 5.34 mm/bregma 1.54 mm to interaural 3.7 mm/bregma -0.1 mm) were used to define atrophy of the striatum and enlargement of the lateral ventricles. Total areas of the striatum or the lateral ventricles were measured using the software, NIH Image 1.62. Nissl- and GFAP-stained sections were quantified by counting the corresponding types of cells in defined areas of photomicrographs taken using a microscope in phase contrast.
Alternatively, elevated choline content may reflect a change in cell types. […] The number of glia was determined using the Nissl staining technique. […] The number of astrocytes, the most numerous of glial cells, was also assessed by staining the brain sections using an antibody against an astrocytic marker (glial fibrillary acidic protein, GFAP). […]

R6/2 mice [4] = assay: Motor coordination assessed by rotarod performance of R6/2 mice; type: in vivo; settings: CGS treatment
wild-type mice [5] = assay: Number of activated astrocytes, wild-type mice; type: in vivo; settings: chronic CGS treatment
Description: Single antigen immunohistochemistry was carried out by the avidin-biotin-peroxidase complex method as previously described (Liu et al. (1998) FEBS Lett. 436:92-98). In brief, free-floating sections were incubated in the polyclonal anti-GFAP antiserum (1 :1000 dilution, Sigma, St. Louis, Mo., USA) at 4° C. for 36-48 h followed by a biotinconjugated goat anti-rabbit IgG (1:500, Vector Laboratories, Burlingame, Calif., USA) for 2 h, and then with an avidin-biotin-peroxidase complex for 2 h with three rinses of 0.1 M PB in between. Sections were incubated in 0.1 M PB containing 0.02% DAB and 0.08% nickel ammonium sulfate. Immunostaining was developed by adding H2O2 to a final concentration of 0.0024%. […] The pattern of double immunostaining was analyzed with the aid of a laser confocal microscope (Bio-Rad, MRC-1000, Hercules, Calif., USA).
as §2

wild-type mice [6] = assay: Choline/creatine levels after chronic CGS, wild-type mice; type: in vivo; settings: chronic IP-administration of CGS
Description: Animals were anesthetized using chloral hydrate (4.088 mg/10 g, i.p. injection). Measurements were performed on a Biospec 4.7 T spectrometer with an active shielding gradient at 6.9 G/cm in 500 us. Mice were placed in a prone position with a custom-designed head-holder. A 20-cm birdcage coil was used for RF excitation, and a 2-cm-diameter surface coil placed directly over the head was used for signal receiving. The volume of interest (VOI) for ^1H-MRS measurements over the striatum was selected on the basis of coronal diffusion-weighted image using a pulse gradient spin-echo diffusion method with a repetition time (TR) of 1500 ms, an echo time (TE) of 62 ms, a field of view of 3 cm×3 cm, a slice thickness of 1 mm, a b value of 1300 s/mm^2, number averages of 2, a 256 -128 matrix size zero filled to 256 -156. The diffusion-sensitive gradients were applied in the read (×) direction before and after the refocusing pulse. Point-resolved spectroscopy (PRESS) sequence, preceded by three consecutive chemical shift selective saturation (CHESS) pulses for water suppression, was used for localized spectroscopy with a 3.5 ×3.5 ×3.5 mm^3voxel located in the striatum region, a spectral width (sw) of 4000 Hz, a TR of 3.5 s, a TE of 136 ms, signal averages of 256, and total scanning time of 8 min 32 sec. The peak areas of NAA, choline (Cho), and creatine (Cr), were recognized. […]

Nc1nc2c(cnn2CCc2ccccc2)c2nc(-c3ccco3)nn12 [SCH58261]
QA-induced excitotoxicity (rats): reduced QA-induced excitotoxicity

Nc1nc(NCCc2ccc(O)cc2)nc2nc(-c3ccco3)nn12 [ZM241385]
number of activated astrocytes in the striatum (R6/2 mice [1]; R6/2 mice treated with ZM and CGS simultaneously, n=4): 43±8 /mm^2
ameliorating effect of CGS on locomotor activity, blockade by antagonist (R6/2 mice [2]): could be blocked

CCNC(=O)[C@H]1O[C@@H](n2cnc3c(N)nc(NCCc4ccc(CCC(=O)O)cc4)nc32)[C@H](O)[C@@H]1O [CGS]
number of glial cells (R6/2 mice [3]): did not affect
enhancement of the number of activated astrocytes (R6/2 mice [1]; R6/2 mice, chronic CGS treatment, in the striatum and in the cortex): 8 fold
motor coordination assessed by rotarod performance (R6/2 mice [4]): not affected
number of activated astrocytes (wild-type mice [5]): not affected
changes in choline/creatine levels (wild-type mice [6]): no detectable changes
